Reference: patent US9464326B2, “Total and phosphorylated IL-1 receptor-associated kinase-1 and IL-1 receptor-associated kinase-4 as a biomarker for cancer progression and chemotherapy resistance” (University of Maryland, Baltimore, priority 2012, dated 2016)

Tests used:
[1] = target: IRAK-1 (Homo sapiens, UniProt P51617); details: supplier (EMD Millipore) description; cited from earlier work
[2] = tested on: patient T-ALL samples; assay: SA-β-gal activity in patient T-ALL samples from treated NSG mice; format: in vivo; details: p<0.05, FIG. 15C
Procedure: Analysis of senescence-associated β-galactosidase (SA-β-gal) activity was performed using the 96-Well Cellular Senescence Assay Kit (Cell Biolabs, San Diego, Calif.) as per the manufacturer's protocol. In brief, cells were washed with PBS, lysed with cell lysis buffer, and incubated at 37° C. with SA-β-gal substrate for 1 hour. A quantitative Cellular Senescence Assay Kit (SA-β-gal, Fluorometric) (Cell Biolabs, San Diego, Calif.) was used for more quantitative measurement of SA-β-gal activity by flow cytometry. Briefly, control and treated CCRF-CEM cells were incubated with 1× cell pretreatment solution in culture medium for 2 hrs, and the fluorogenic substrate was then directly added into the culture. After 4 hrs, the cells were washed and analyzed by flow cytometry.
CCRF-CEM (2×10^6) cells were injected intravenously (i.v.) into female NOD.Cg-Prkdc^scid Il2rg^tm1WJl/SzJ IL2RG (NSG) mice (Jackson Laboratories, Bar Harbor, Me.). […] In some experiments mice were injected i.v. with TLR1-TLR2 ligand (2.5 μg) two days after injecting cells. […] The numbers of T-ALL cells in the bone marrow, spleen, liver, and in circulation were determined by staining cells with anti-human CD7 and/or CD5. […]

[3] = tested on: melanoma cells; assay: Western blot of phosphorylated NF-KB; format: cell-based, human; details: 48 hrs, vs DMSO, FIG. 7C
Procedure: FIG. 7. TLR and TLR signaling-related protein expression profiles on melanoma cell lines. (A) The expression levels of TLR1-TLR10 and various TLR-related proteins were examined by Western blot in samples from human melanoma cell lines. (B) The TLR1-TLR2 ligand Pam3CysK4 was added to A375 cells for 48 hrs. Cytokine and chemokine production by was determined using a Milliplex cytokine/chemokine array. (C) IRAK-1,-4 inhibitor or vehicle alone (DMSO) was added to melanoma cells for 48 hrs. The level of phosphorylated and non-phosphorylated p65 subunit of NF-KB was determined by Western blot. (D) Cytokine and chemokine levels in the supernatant A375 cell culture were examined using a Milliplex cytokine/chemokine array 48 hours after adding IRAK-1,-4 inhibitor or DMSO. ANOVA; **P<0.001, *P<0.05.
Total cell extracts were prepared from melanoma cells. […] Melanoma tissue arrays were purchased from US Biomax, Inc (Rockville, Md.). For immunohistochemical staining samples were stained with mouse monoclonal anti-human phosphor-IRAK.-4 antibody (Abnova; dilution, 3.5 μg/ml) or normal mouse serum. […] IHC specimens were analyzed using “quick score” system in which the intensity of the immunohistochemical reaction was scored by multiplying the intensity 1 (weak), 2 (moderate), and 3 (strong) and the proportion of cells staining positively 0 (<10%), 1 (10-25%), 2 (26-50%), 3 (51-75%) or 4 (>75%).

[4] = tested on: Primary T-cells Activated; assay: Proliferation (3H-thymidine) of activated primary T-cells; format: cell-based, human
Text: CCRF-CEM, CEM/C1, CEM/C2, CEM-C7, Jurkat, Loucy, Molt-4, HSB-2, SUP-T1, Hut 78, HH, Hut 102, MO, and H9 T-leukemia and T-lymphoma cell lines were purchased from the American Type Culture Collection (Manassas, Va., USA). All of the cell lines were initially expanded and cryopreserved within one month of receipt. Cells were typically used for 6 months at which time a fresh vial of cryopreserved cells was used. Total T cells from healthy donors were isolated via negative selection followed by positive selection using a CD3+ selection kit (Invitrogen, Carlsbad, Calif.). T cells were isolated from patients with T-ALL bone marrow or peripheral blood samples containing more than 70% leukemia cells using a CD2+ isolation kit (STEMCELL Technologies, Vancouver, Canada). All tissues were collected under institutional IRB-approved protocols and all participants gave written informed assent/consent. For in vitro experiments, T-ALL cells were cultured in AIM-V medium supplemented with 20% human AB serum in the presence of recombinant human stem cell factor (50 ng/mL; Amgen, Thousand Oaks, Calif.), insulin (20 nM; Sigma-Aldrich, St Louis, Mo., USA) and IL-7 (50 ng/mL; R&D Systems, Minneapolis, Minn., USA). In other experiments, protein lysate was collected using the Full Moon Biosystems (Sunnyvale, Calif., USA) buffer prior to protein examination by western blot or protein array.
Cells were cultured in a 96-well plate (Corning Costar, Corning, N.Y., USA) with various concentrations of TLR ligands 1-9, starting at 10 μg/ml, in a final volume of 200 ul. TLR ligands were diluted 2-fold. Cell lines (25-40×10^3/well) were cultured for 54 hours, whereas fresh patient-derived T-ALL cells (200×10^3/well) were cultured for 30 hours prior to adding [^3H]-thymidine for 18 hours. After this time point, cells were harvested with a Packard Filter-Mate-96 cell harvester (Perkin Elmer, Waltham, Mass., USA) and counted on Packard Top Count-NXT (Perkin Elmer, Waltham, Mass., USA). Results were expressed as average counts per minute (cpm). In some experiments CCRF-CEM cells were pre-treated with TLR1-TLR2 ligand (Pam3CysK4; 2.5 ug/ml) for 48 hrs, washed, and then cultured in the presence of varying concentrations of FBS. Forty-eight hours later, proliferation (±SD) was determined by ^3H-thymidine incorporation. Alternatively, apoptosis was measured by flow cytometry after staining cells with Annexin-V (BD Pharmingen, San Diego, Calif., USA) and propidium iodide (Sigma). Cell number was counted under microscopy by staining cells with trypan blue.
The following TLR ligands were purchased from Invivogen (San Diego, Calif., USA): tripalmitoyl-S-(bis(palmitoyloxy)propyl)-Cys-Ser-(Lys)3-Lys (TLR1-2); Poly I:C (TLR3); ultrapure S. Minnesota Lipopolysaccharide (TLR4); S. typhimurium flagellin (TLR5); FSL-1 (TLR2/6); Imiquimod (TLR7); ssRNA40/Lyovec (TLR8); CpG-ODN 2006 (TLR9).

Chain of IRAK-1 (P51617 whole entry): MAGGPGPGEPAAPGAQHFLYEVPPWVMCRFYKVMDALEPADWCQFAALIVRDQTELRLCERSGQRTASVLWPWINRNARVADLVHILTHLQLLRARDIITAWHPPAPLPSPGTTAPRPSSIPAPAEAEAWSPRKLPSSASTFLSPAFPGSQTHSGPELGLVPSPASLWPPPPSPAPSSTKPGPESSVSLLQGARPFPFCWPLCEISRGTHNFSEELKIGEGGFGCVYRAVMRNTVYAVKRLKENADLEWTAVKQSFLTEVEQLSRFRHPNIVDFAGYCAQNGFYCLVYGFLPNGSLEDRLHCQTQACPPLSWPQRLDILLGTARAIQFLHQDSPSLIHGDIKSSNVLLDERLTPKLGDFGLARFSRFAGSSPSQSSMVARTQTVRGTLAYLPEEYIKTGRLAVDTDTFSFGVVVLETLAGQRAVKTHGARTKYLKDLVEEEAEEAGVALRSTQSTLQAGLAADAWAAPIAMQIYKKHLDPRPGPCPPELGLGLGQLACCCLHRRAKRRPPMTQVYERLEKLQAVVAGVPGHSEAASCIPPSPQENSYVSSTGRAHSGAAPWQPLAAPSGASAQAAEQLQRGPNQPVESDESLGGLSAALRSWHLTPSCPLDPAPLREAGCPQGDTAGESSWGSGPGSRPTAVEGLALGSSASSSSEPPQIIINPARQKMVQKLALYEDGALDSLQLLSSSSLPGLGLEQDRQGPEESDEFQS

| Compound | inhibition of IRAK-1 [1] | SA-β-gal activity [2] | phosphorylated NF-KB (p-NF-KB) [3] | Proliferative effects of TLR ligands ([4]; Primary T-cells, Activated, 3H-thymidine uptake, 72 h) | TLR ligand concentration in parentheses below the symbol ([4]; Primary T-cells, Activated, no unit in table (μg/ml)) | effect on proliferation / T-cell expansion (in words) ([4]; T cells from healthy donors, together with T cell receptor stimulation, FIG. 1A) |
| --- | --- | --- | --- | --- | --- | --- |
| O=C(Nc1nc2ccccc2n1CCN1CCOCC1)c1cccc([N+](=O)[O-])c1 [IRAK-1,-4 inhibitor] | selectively inhibits | increased SA-β-gal activity | marked reduction |  |  |  |
| tripalmitoyl-S-(bis(palmitoyloxy)propyl)-Cys-Ser-(Lys)3-Lys [Pam3Cysk4] |  |  |  | + (enhanced proliferation by 25% or greater) | (10) | enhanced proliferation |
